Assay: solvent given as SMILES

SMILES: CCN(CC)c1c2ccc(=[N+]3CCCCC3)cc-2oc2cc(N3CCCCC3)ccc12
- emission maximum (in ClCCl): 558 nm

SMILES: COc1ccc(/C=C/C(=O)c2c(O)cc(C)oc2=O)cc1
- emission maximum (in CC#N): 488 nm
- emission maximum (in ClCCl): 487 nm

SMILES: COc1ccc(N(c2ccccc2)c2cc3ccc4cc(N(c5ccccc5)c5ccc(OC)cc5)cc5ccc(c2)c3c45)cc1
- emission maximum (in Cc1ccccc1): 482 nm

SMILES: CC1=CC(C)=[N+]2C1=Cc1c3ccccc3c(C#Cc3ccccc3)n1[B-]2(F)F
- emission maximum (in CCCCCC): 615 nm
- emission maximum (in CCCCCCCCO): 623 nm
- emission maximum (in CCOC(C)=O): 618 nm
- emission maximum (in CN(C)C=O): 624 nm
- emission maximum (in ClCCl): 629 nm

SMILES: CN(C)c1ccc2nc(-c3ccc(C(=O)Nc4ccccc4)cc3)sc2c1
- emission maximum (in C1CCCCC1): 427 nm
- emission maximum (in CC#N): 553 nm
- emission maximum (in CC(C)O): 534 nm
- emission maximum (in CO): 565 nm
- emission maximum (in CS(C)=O): 564 nm
- emission maximum (in ClC(Cl)Cl): 494 nm
- emission maximum (in c1ccccc1): 475 nm

SMILES: CCN(CC)c1ccc(-c2nc(Oc3ccc(-c4nc5ccccc5s4)cc3)nc(Oc3ccc(-c4nc5ccccc5s4)cc3)n2)cc1
- emission maximum (in CN(C)C=O): 419 nm

SMILES: N#Cc1cc(C#N)c(-n2c3ccccc3c3cc(-c4cccc5c4c4ccccc4n5-c4cc(-n5c6ccccc6c6ccccc65)c(C#N)cc4C#N)ccc32)cc1-n1c2ccccc2c2ccccc21
- emission maximum (in O=P(c1ccccc1)(c1ccccc1)c1ccccc1Oc1ccccc1P(=O)(c1ccccc1)c1ccccc1): 448 nm

SMILES: CCOC(=O)COc1ccc(/C=C/C2=C3C(C)=CC(C)=[N+]3[B-](F)(F)n3c2c2ccccc2c3-c2[nH]c(C)cc2C)cc1
- emission maximum (in ClCCl): 687 nm

SMILES: Cc1cccc2c3ccccc3n(-c3ccc(-c4c(-c5ccccc5)c(C#N)c(C#N)c(-c5ccccc5)c4-c4ccc(-n5c6ccccc6c6cccc(C)c65)cc4)cc3)c12
- emission maximum (in Cc1ccccc1): 440 nm
- emission maximum (in O=P(c1ccccc1)(c1ccccc1)c1ccc2oc3ccc(P(=O)(c4ccccc4)c4ccccc4)cc3c2c1): 450 nm

SMILES: CC(C)[Si](C#Cc1ccc(C#C[Si](C(C)C)(C(C)C)C(C)C)c2nc3c(nc12)Cc1ccccc1-3)(C(C)C)C(C)C
- emission maximum (in CCCCCC): 430 nm

SMILES: CCN(CC)c1ccc2cc(C#N)c(=N)oc2c1
- emission maximum (in ClCCl): 460 nm

SMILES: N#CC(C#N)=Cc1ccc2nc(C#Cc3ccc(N(c4ccccc4)c4ccccc4)cc3)sc2c1
- emission maximum (in Cc1ccccc1): 535 nm

SMILES: C/C(=C\c1ccc(C)cc1)c1nc2ccccc2o1
- emission maximum (in C1CCCCC1): 370 nm
- emission maximum (in CO): 380 nm

SMILES: COOCc1noc(-c2ccccc2)c1Br
- emission maximum (in C1CCCCC1): 345 nm

SMILES: C=CCOc1nnc(OCCC(F)(F)C(F)(F)C(F)(F)C(F)(F)C(F)(F)C(F)(F)C(F)(F)C(F)(F)F)nn1
- emission maximum (in ClCCl): 572 nm
- emission maximum (in OCC(F)(F)F): 560 nm

SMILES: Cc1cc(-c2ccc(-c3n(C)c4ccccc4[n+]3C)cc2)ccc1-c1ccc(-c2n(C)c3ccccc3[n+]2C)cc1
- emission maximum (in O): 399 nm

SMILES: CCC1=C(C)C2=Cc3cc(I)cn3[B-](F)(F)[N+]2=C1C
- emission maximum (in C1CCCCC1): 538.5 nm
- emission maximum (in CC(C)=O): 541 nm
- emission maximum (in CCO): 543 nm
- emission maximum (in CCOC(C)=O): 540.5 nm
- emission maximum (in CO): 542.5 nm
- emission maximum (in OCC(F)(F)F): 540 nm

SMILES: CCCCCCCCCCCCOc1cc2cc(N(C)C)ccc2cc1C=C(C#N)C#N
- emission maximum (in C1CCOC1): 576 nm
- emission maximum (in CC#N): 613 nm
- emission maximum (in CCCCCC): 653 nm
- emission maximum (in CCO): 610 nm
- emission maximum (in CCOC(C)=O): 571 nm
- emission maximum (in CS(C)=O): 631 nm
- emission maximum (in ClCCl): 578 nm
- emission maximum (in O): 674 nm

SMILES: CC(=O)c1ccc(-c2cccc3ncc(-c4ccccc4)n23)cc1
- emission maximum (in ClCCl): 506 nm

SMILES: Cc1ccc2ccc3cccc4ccc1c2c34
- emission maximum (in CCCCCC): 377 nm
- emission maximum (in CO): 377 nm
- emission maximum (in ClCCl): 378 nm

SMILES: CC(O)CC1=N/C(=C\c2cccc(N(C)C)c2)C(=O)N1C (configuration not stated)
- emission maximum (in C1CCOC1): 585 nm
- emission maximum (in CC#N): 642 nm
- emission maximum (in CCCCCC): 506 nm

SMILES: COC1=[N+]2C(=C(c3ccccc3)c3cc(SC#N)c(OC)n3[B-]2(F)F)C=C1SC#N
- emission maximum (in CC#N): 553 nm
- emission maximum (in CCCCCC): 560 nm
- emission maximum (in CCOC(C)=O): 556 nm
- emission maximum (in CO): 550 nm
- emission maximum (in ClCCl): 555 nm

SMILES: COc1ccc(-c2n[n+]3c(s2)N=C(c2ccccc2)O[B-]3(F)F)cc1
- emission maximum (in Cc1ccccc1): 436 nm

SMILES: CC1(C)CC[N+]2=c3c(cc4c(c31)Oc1cc3c(cc1C=4c1ccccc1C(=O)O)C(c1ccccc1C(=O)O)=c1cc4c5c(c1O3)C(C)(C)CC[N+]=5CCC4)CCC2
- emission maximum (in ClC(Cl)Cl): 635 nm

SMILES: COc1ccccc1C1=NC2c3cccc4cccc(c34)C2N1c1ccccc1 (configuration not stated)
- emission maximum (in Cc1ccccc1): 379 nm

SMILES: c1ccc(-c2c3ccccc3c(-c3cncnc3)c3ccccc23)cc1
- emission maximum (in CCO): 441 nm
- emission maximum (in ClCCl): 414 nm

SMILES: CC(C)Oc1ccc(C#Cc2ccc3ccc(=O)oc3c2)cc1
- emission maximum (in CC#N): 470 nm

SMILES: CCCCCCCCCCCCC(CCCCCCCCCC)Cn1c2cc(/C=C/C=C(C#N)C#N)c3cccc4c5cccc6c(/C=C/C=C(C#N)C#N)cc1c(c65)c2c34 (configuration not stated)
- emission maximum (in C1CCCCC1): 648 nm
- emission maximum (in CC#N): 702 nm
- emission maximum (in Cc1ccccc1): 668 nm
- emission maximum (in ClCCl): 697 nm

SMILES: c1ccc(-n2c(-c3cccc4ccccc34)nc3c4cccc5ccc6cccc(c6c54)c32)cc1
- emission maximum (in C1CCOC1): 422.46 nm
- emission maximum (in CCCCCC): 384 nm
- emission maximum (in CS(C)=O): 436 nm
- emission maximum (in Cc1ccccc1): 420 nm
- emission maximum (in ClCCl): 424.78 nm

SMILES: COC(=O)c1noc(-c2ccccc2)c1Br
- emission maximum (in C1CCCCC1): 344 nm

SMILES: CC1=CC(/C=C/c2ccc(OCCCN=[N+]=[N-])cc2)=[N+]2C1=C(c1ccc(N3CCCCC3)cc1)c1c(C)cc(C)n1[B-]2(F)F
- emission maximum (in CO): 586 nm

SMILES: c1cc2cc(c1)c1cccc(c1)c1cccc(c1)c1cccc(c1)c1cccc(c1)c1cccc2c1
- emission maximum (in ClC(Cl)Cl): 337 nm

SMILES: CCCCCCCCCCOC(=O)c1ccc2c3ccc(C(=O)OCCCCCCCCCC)c4c(C(=O)OCCCCCCCCCC)cc5[nH]c6cc(C(=O)OCCCCCCCCCC)c1c2c6c5c43
- emission maximum (in C1CCOC1): 493 nm

SMILES: N#Cc1cc2ccc(O)cc2oc1=O
- emission maximum (in C1CCCCC1): 411 nm
- emission maximum (in C1CCOC1): 405 nm
- emission maximum (in CC#N): 402 nm
- emission maximum (in CCOC(C)=O): 406 nm
- emission maximum (in CS(C)=O): 401 nm
- emission maximum (in ClC(Cl)Cl): 408 nm
- emission maximum (in O): 410 nm

SMILES: N#CC(C#N)=Cc1cn(-c2ccccc2)nc1-c1ccccc1
- emission maximum (in C1CCOC1): 427 nm
- emission maximum (in C1COCCO1): 426 nm
- emission maximum (in CCO): 426 nm
- emission maximum (in CCOC(C)=O): 427 nm
- emission maximum (in CN(C)C=O): 438 nm
- emission maximum (in CO): 426 nm
- emission maximum (in CS(C)=O): 443 nm
- emission maximum (in Cc1ccccc1): 430 nm
- emission maximum (in ClC(Cl)Cl): 432 nm
- emission maximum (in ClCCl): 430 nm

SMILES: C#CCOc1ccc(/C=C/C2=[N+]3C(=C(c4ccccc4)c4c(C)cc(C)n4[B-]3(F)F)C(C)=C2)cc1
- emission maximum (in CO): 574 nm

SMILES: CCN(CC)c1ccc2c(c1)C(C)(C)C(=O)C=C2
- emission maximum (in O): 552 nm

SMILES: O=c1cc(-c2ccccc2)oc(-c2ccc(-c3nc4ccccn4c3NC3CCCCC3)cc2)c1
- emission maximum (in ClCCl): 508 nm

SMILES: NCCCCCCCCCCCCN1C(=O)c2ccc3c4ccc5c6c(ccc(c7ccc(c2c37)C1=O)c64)C(=O)NC5=O
- emission maximum (in CN(C)C=O): 534 nm

SMILES: Nc1ccc(-c2ccc(N)cc2)cc1
- emission maximum (in C1CCOC1): 394 nm
- emission maximum (in C1COCCO1): 392 nm
- emission maximum (in CC#N): 393 nm
- emission maximum (in CCCCCC): 373 nm
- emission maximum (in CCOC(C)=O): 391 nm
- emission maximum (in CN(C)C=O): 403 nm
- emission maximum (in CO): 397 nm
- emission maximum (in CS(C)=O): 404 nm
- emission maximum (in Cc1ccccc1): 395 nm
- emission maximum (in ClC(Cl)Cl): 384 nm
- emission maximum (in ClCCl): 384 nm
- emission maximum (in O): 401 nm

SMILES: CCOC(=O)c1ccc(/C=C/C2=[N+]3C(=C(c4ccccc4)c4ccc(/C=C/c5ccc(C(=O)OCC)o5)n4[B-]3(F)F)C=C2)o1
- emission maximum (in ClC(Cl)Cl): 681 nm

SMILES: CCCCC1(CCCC)c2cc(/C=C/c3ccc(N(c4ccccc4)c4ccccc4)cc3)ccc2-c2cc3c(cc21)-c1ccc(/C=C/c2ccc(N(c4ccccc4)c4ccccc4)cc2)cc1C3(CCCC)CCCC
- emission maximum (in Cc1ccccc1): 450 nm

SMILES: CN1C(=CC2=C([S-])C(=CC3=[N+](C)c4ccccc4C3(C)C)C2=O)C(C)(C)c2ccccc21
- emission maximum (in ClC(Cl)Cl): 663 nm

SMILES: CSC1=C(C)C2=C(c3ccc(C)cc3)c3c(C)c(Cl)c(C)n3[B-](F)(F)[N+]2=C1C
- emission maximum (in C1CCOC1): 655 nm

SMILES: F[B-]1(F)OC(c2ccc(Br)cc2)=Cc2c3ccccc3cc[n+]21
- emission maximum (in ClC(Cl)Cl): 466.4 nm

SMILES: CCCCCCCCCCCCCCCCOc1cc(C#Cc2ccc3ccccc3c2)c(OCCCCCCCCCCCCCCCC)cc1C#Cc1ccc(C=C(C#N)C#N)cc1
- emission maximum (in Brc1ccccc1): 582 nm
- emission maximum (in C1CCCCC1): 484 nm
- emission maximum (in C1CCOC1): 602 nm
- emission maximum (in C1COCCO1): 554 nm
- emission maximum (in CCCCCC): 480 nm
- emission maximum (in CCCCCCCCO): 596 nm
- emission maximum (in CCCCOCCCC): 524 nm
- emission maximum (in CCOC(C)=O): 590 nm
- emission maximum (in CCOCC): 550 nm
- emission maximum (in Cc1ccccc1): 530 nm
- emission maximum (in ClC(Cl)(Cl)Cl): 500 nm
- emission maximum (in ClC(Cl)Cl): 596 nm
- emission maximum (in ClCCl): 618 nm

SMILES: COC(=O)/C=C/C1=CC2=C(c3c(C)cc(C)cc3C)c3cccn3[B-](F)(F)[N+]2=C1
- emission maximum (in ClCCl): 570 nm

SMILES: CCCCC(CC)CN1C(=O)c2cccc3c(C#Cc4ccc(N(c5ccccc5)c5ccc(C#Cc6ccc7c8c(cccc68)C(=O)N(CC(CC)CCCC)C7=O)cc5)cc4)ccc(c23)C1=O (configuration not stated)
- emission maximum (in C1CCCCC1): 472 nm
- emission maximum (in C1CCOC1): 631 nm
- emission maximum (in CC#N): 549 nm
- emission maximum (in Cc1ccccc1): 514 nm
- emission maximum (in ClC(Cl)Cl): 587 nm

SMILES: N#Cc1ccc(-c2ccc3c(c2)c2cc(-c4ccc(C#N)cc4)ccc2c2c3nc(-c3ccc(N(c4ccccc4)c4ccccc4)cc3)n2-c2ccccc2)cc1
- emission maximum (in C1CCOC1): 449.94 nm
- emission maximum (in CC#N): 479.9 nm
- emission maximum (in CCCCCC): 419.62 nm
- emission maximum (in CCOCC): 439.6 nm

SMILES: CC(C)(C)c1ccc2c(c1)sc1[n+]2[B-](F)(F)n2c(c3cccc4c(Br)ccc2c43)=C1C#N
- emission maximum (in C1CCOC1): 563 nm
- emission maximum (in CC#N): 558 nm
- emission maximum (in CCCCCC): 558 nm
- emission maximum (in Cc1ccccc1): 563 nm
- emission maximum (in ClCCl): 560 nm

SMILES: C(#Cc1cc(C#Cc2cccs2)c(C#Cc2cccs2)c(C#Cc2cccs2)c1C#Cc1cccs1)c1cccs1
- emission maximum (in ClCCl): 425 nm
